Test systems include UACC-62; NCI-H23; SF-268; SK-OV-3; OVCAR-5; HT-29; HOP-92; M14; HOP-62; OVCAR-8; ACHN; PC-3; T47D; Malme-3M; UO-31; UACC-257; SK-MEL-5; NCI-H522; SF-539; SK-MEL-28.
Experiment in all cases: inhibition of tumour cell growth, NCI panel, 48 h

These results are taken from ChEMBL document CHEMBL1201862, “PubChem BioAssay data set” (2004).

Molecules are shown by their SMILES.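 Following 48 hours of exposure in 96-well plates, responses at five concentrations were used to interpolate endpoints linearly. The concentration for 50% growth inhibition is given as GI50.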 Active and inactive are the calls of the source. No stated cut-off is given here; in the data, active = GI50 up to about 1.1 µM and inactive = higher.

Take `COc1ccccc1NCc1nnc(CCCCCCCCc2nnc(CNc3ccccc3OC)o2)o1`: the GI50 with UACC-62, in the assay on NCI-H23, in the assay on SF-268, with SK-OV-3, with OVCAR-5 and in the assay with HT-29 was > 100 µM (inactive) throughout. Also, the GI50 with HOP-92, with M14, with HOP-62, in the assay with OVCAR-8, in the assay with ACHN and in the assay on PC-3 was > 100 µM (inactive) in each case. In addition, the GI50 with T47D, with Malme-3M, in the assay with UO-31, in the assay on UACC-257, with SK-MEL-5 and with NCI-H522 was > 100 µM (inactive) each time.

Take `C=CC(CBr)CCC(Br)C(C)(C)Br` (configuration not stated): the GI50 with SF-539, in the assay on NCI-H23, in the assay with SF-268, in the assay with SK-OV-3, in the assay on OVCAR-5 and with HT-29 was > 10 µM (inactive) each time. Also, the GI50 with HOP-92, in the assay with M14, in the assay on HOP-62, in the assay with OVCAR-8, in the assay with ACHN and in the assay with PC-3 was > 10 µM (inactive) in each case. The GI50 in the assay on T47D, in the assay with SK-MEL-28, in the assay with Malme-3M, in the assay on UO-31, with UACC-257 and in the assay with SK-MEL-5 was > 10 µM (inactive) throughout. In the assay on NCI-H522, the GI50 was > 10 µM (inactive).

For the compound `COc1ccc2c(c1)c1c(n2CCN2CCCCC2)-c2ccccc2CC1`, the GI50 was 13.6 µM (inactive) with SF-539; 17.7 µM (inactive) in the assay with NCI-H23; 13.8 µM (inactive) with SF-268; 19.7 µM (inactive) with SK-OV-3; 16.9 µM (inactive) in the assay on OVCAR-5; 4.48 µM (inactive) with HT-29. In addition, the GI50 is 15.8 µM (inactive) in the assay on HOP-92; 14.7 µM (inactive) in the assay with M14; 18.6 µM (inactive) with HOP-62; 14.9 µM (inactive) with OVCAR-8; 17.2 µM (inactive) in the assay with ACHN; 13.6 µM (inactive) in the assay with PC-3. In addition, the GI50 was 15.1 µM (inactive) in the assay with T47D; 17.9 µM (inactive) in the assay on SK-MEL-28; 14.6 µM (inactive) in the assay on Malme-3M; 13.3 µM (inactive) in the assay on UO-31; 17.9 µM (inactive) with UACC-257; 15.9 µM (inactive) in the assay with SK-MEL-5. Further, in the assay on NCI-H522, the GI50 is 8.97 µM (inactive).

Regarding `CCC1(CC)CC(=NNS(=O)(=O)c2ccc(C)cc2)C1`, the GI50 in the assay on SF-539, with UACC-62, in the assay on NCI-H23, in the assay on SF-268, with SK-OV-3 and with OVCAR-5 was > 100 µM (inactive) throughout. For the same compound, the GI50 in the assay on HT-29, in the assay with HOP-92, in the assay on M14, in the assay with OVCAR-8, with ACHN and with PC-3 was > 100 µM (inactive) in each case. Besides, the GI50 in the assay on T47D, in the assay with SK-MEL-28, with Malme-3M, in the assay on UO-31, in the assay on UACC-257 and with SK-MEL-5 was > 100 µM (inactive) throughout. For the same compound, the GI50 in the assay on NCI-H522 is > 100 µM (inactive).

As for `COc1cc(S(=O)(=O)Nc2ccc(-c3csc(/N=C\c4cccc(Oc5ccccc5)c4)n3)cc2)ccc1Cl`, the GI50 is 33.9 µM (inactive) with SF-539; 6.44 µM (inactive) in the assay on UACC-62; 45.9 µM (inactive) in the assay with NCI-H23; 34.6 µM (inactive) with SF-268; 26.3 µM (inactive) with OVCAR-5; 9.75 µM (inactive) in the assay on HT-29. Besides, the GI50 was 20.1 µM (inactive) with HOP-92; 17 µM (inactive) with M14; 44.9 µM (inactive) with HOP-62; 25.6 µM (inactive) in the assay with OVCAR-8; 15.5 µM (inactive) in the assay on ACHN; 36.7 µM (inactive) with PC-3. Also, the GI50 with T47D was 16.2 µM (inactive); in the assay on SK-MEL-28 it was 36.1 µM (inactive); in the assay with Malme-3M it was 47.8 µM (inactive); in the assay with UO-31, 29.9 µM (inactive); in the assay with SK-MEL-5, 27.9 µM (inactive); in the assay with NCI-H522 it was 26.1 µM (inactive).

Consider `COc1cc(C(=O)O)c(-c2cc3c(cc2C=O)OCO3)c(OC)c1OC`, for which the GI50 in the assay with SF-539, in the assay with UACC-62, in the assay with NCI-H23, in the assay on SF-268, with SK-OV-3 and in the assay with HT-29 was > 10 µM (inactive) each time. Also, the GI50 in the assay with HOP-92, in the assay with M14, with HOP-62, in the assay on OVCAR-8, with ACHN and in the assay on PC-3 was > 10 µM (inactive) each time. The GI50 in the assay with T47D, in the assay on SK-MEL-28, in the assay on Malme-3M, with UACC-257, in the assay on SK-MEL-5 and in the assay with NCI-H522 was > 10 µM (inactive) in each case.

For the compound `CC(=S)NC=C(C(N)=O)C(N)=O`, the GI50 in the assay on SF-539, with UACC-62, in the assay on NCI-H23, in the assay with SF-268, in the assay on SK-OV-3 and in the assay on OVCAR-5 was > 100 µM (inactive) each time. Further, the GI50 in the assay with HT-29 is > 100 µM (inactive); with HOP-92, 3.26 µM (inactive); in the assay on M14, > 100 µM (inactive); in the assay with HOP-62 it was > 100 µM (inactive); in the assay on OVCAR-8 it was > 100 µM (inactive); in the assay on ACHN, > 100 µM (inactive). For the same compound, the GI50 with PC-3, in the assay with T47D, in the assay on SK-MEL-28, with Malme-3M, in the assay on UACC-257 and with SK-MEL-5 was > 100 µM (inactive) throughout. Also, in the assay on NCI-H522, the GI50 was > 100 µM (inactive).

Consider `COc1cc2c(c(O)c1O)C(=O)C1CCC(=O)N1C2c1cccc2ccccc12` (configuration not stated), for which the GI50 was > 50 µM (inactive) in the assay with SF-539; 49.9 µM (inactive) with UACC-62; > 50 µM (inactive) in the assay with NCI-H23; > 50 µM (inactive) in the assay with SF-268; > 50 µM (inactive) in the assay on SK-OV-3; > 50 µM (inactive) with OVCAR-5. Besides, the GI50 in the assay on HT-29, in the assay with HOP-92, in the assay on M14, in the assay with HOP-62, with OVCAR-8 and in the assay with ACHN was > 50 µM (inactive) each time. The GI50 in the assay on PC-3, in the assay on T47D, in the assay on SK-MEL-28, in the assay on UO-31, with UACC-257 and in the assay on NCI-H522 was > 50 µM (inactive) each time.

With `O=C(O)[C@@H]1NC[C@H]2C(Br)=NO[C@H]21`, the GI50 in the assay with UACC-62, in the assay with NCI-H23, with SF-268, in the assay with SK-OV-3, in the assay on OVCAR-5 and with HT-29 was > 100 µM (inactive) each time. Also, the GI50 in the assay with HOP-92, in the assay on M14, with HOP-62, in the assay with OVCAR-8, in the assay with ACHN and in the assay on PC-3 was > 100 µM (inactive) each time. Also, the GI50 is > 100 µM (inactive) in the assay with T47D; > 100 µM (inactive) with SK-MEL-28; > 100 µM (inactive) in the assay on Malme-3M; > 100 µM (inactive) with UO-31; > 100 µM (inactive) with UACC-257; 69.5 µM (inactive) in the assay with SK-MEL-5. For the same compound, the GI50 with NCI-H522 is > 100 µM (inactive).

For `Cn1nc(C(=O)N2CC(CCl)c3c2cc([N+](=O)[O-])c2ccccc32)cc1NC(=O)Nc1cc(C(=O)N2CC(CCl)c3c2cc([N+](=O)[O-])c2ccccc32)nn1C` (configuration not stated), the GI50 is 0.0745 µM (active) with SF-539; > 100 µM (inactive) in the assay with UACC-62; > 100 µM (inactive) with NCI-H23; 48.5 µM (inactive) in the assay on SF-268; > 100 µM (inactive) with SK-OV-3; > 100 µM (inactive) with OVCAR-5. The GI50 in the assay on HOP-92 is > 100 µM (inactive); in the assay with M14 it was > 100 µM (inactive); in the assay on HOP-62, 32.1 µM (inactive); with ACHN, > 100 µM (inactive); in the assay on PC-3, > 100 µM (inactive); in the assay with T47D it was > 100 µM (inactive). In addition, the GI50 in the assay on SK-MEL-28, in the assay with Malme-3M, in the assay with UO-31, in the assay on UACC-257, in the assay on SK-MEL-5 and in the assay with NCI-H522 was > 100 µM (inactive) each time.

On to `CC(=O)Nc1ccc(-c2nc3ccccc3s2)cc1O`, for which the GI50 in the assay on UACC-62 was 18.1 µM (inactive); with NCI-H23, 24.5 µM (inactive); in the assay with SF-268, 27.8 µM (inactive); in the assay on OVCAR-5, 23 µM (inactive); with HT-29, 34.7 µM (inactive); with HOP-92, 65.9 µM (inactive). Further, the GI50 was 59.2 µM (inactive) in the assay on M14; 32.3 µM (inactive) in the assay with HOP-62; 19.8 µM (inactive) with OVCAR-8; 27.3 µM (inactive) in the assay on ACHN; 51.2 µM (inactive) in the assay on PC-3; 36.1 µM (inactive) in the assay on T47D. Further, the GI50 with SK-MEL-28 was 80.5 µM (inactive); in the assay with UO-31, 19.6 µM (inactive); with UACC-257 it was 31.6 µM (inactive); with SK-MEL-5, 20.4 µM (inactive); in the assay on NCI-H522 it was 2.22 µM (inactive).
